# Source: patent US20190153024A1, “NOVEL SALTS AND POLYMORPHS OF SCY-078” (priority 2015, published 2019)
# How the values were obtained:
# [1] = Chemical and physical stability of SCY-078 salts on storage (25° C./60% RH, 40° C./75% RH, 60° C.); type: physicochemical; conditions: Type M 4 days, Type S 1 week
# Description: For all compounds tested other than the trifluoroacetate salts (Type A and B) and the HCl Type I and II salts, the conditions and parameters used for measuring solubility are shown in Table 2A and for measuring stability are showing in Table 3A. The conditions and parameters used for the solubility of the trifluoroacetate salts (Type A and B) and the HCl Type I and II salts are shown in Table 2B and for stability are shown in Table 3B.
# [2] = Dynamic Vapor Sorption (DVS) water uptake; type: physicochemical; conditions: for solid form by XRPD after DVS: after DVS experiment
# Procedure: Dynamic Vapor Sorption (DVS)—The term “DVS” means the procedure described in below. The relative humidity at 25° C. was calibrated against deliquescence point of LiCl, Mg(NO3)2 and KCl.
# The DVS of SCY-078 salts were tested according to the above method, using a 10-20 mg sample size. The DVS was measured using a Surface Measurement Systems (SMS) DVS Intrinsic.
# [3] = pH value of saturated SCY-078 salt solutions in water; type: physicochemical; conditions: saturated salt solution in H2O, room temperature; for pH 1 hr: equilibrated 1 hour; for pH 24 hrs: equilibrated 24 hours
# Procedure: To test the pH, a solution of each compound was equilibrated at room temperature using a rolling incubator (25 rpm) for 1 hour and 24 hours before measurement.
# [4] = Kinetic solubility of trifluoroacetate Types A and B and HCl Type I (alternative procedure: SGF, FaSSIF and FeSSIF alternative media, acetate pH 5.5, phosphate pH 6.0 alternative media); conditions: for Form change: residual solid by XRPD
# Procedure: An alternative media (“FaSSIF alternative media”) was used to study the trifluoroacetate salts (Type A and B) and the HCl Type I salt. More specifically, the media was prepared by weighing 0.17 g of sodium phosphate monobasic (NaH2PO4, anhydrous), 0.021 g of sodium hydroxide, and 0.31 g of sodium chloride into a 50-mL volumetric flask and was dissolve with approximately 48 mL of purified water. The pH was adjusted to exactly 6.5 using 1 M HCl or 1 M NaOH and diluted to volume with purified water. 0.11 g of SIF powder was then added, stirred and sonicated until all the powder was completely dissolved. The solution was equilibrated for 2 hours at RT before use. The solution can be stored at RT for 48 hours or 4° C. for 7 days and should be equilibrated to RT before use
# An alternative media (“FeSSIF alternative media”) was used to study the trifluoroacetate salts (Type A and B) and the HCl Type I salt. More specifically, the media was prepared by transferring 0.41 mL of glacial acid and weighing 0.20 g of sodium hydroxide, 0.59 g of sodium chloride into a 50-mL volumetric flask. This was dissolved with approximately 48 mL of purified water. The pH was adjusted to exactly 5.0 using 1 M HCl or 1 M NaOH and diluted to volume with purified water. 0.56 g of SIF powder was added, stirred and sonicated until all the powder is completely dissolved. The solution can be stored at RT for 48 hours or 4° C. for 7 days and should be equilibrated to RT before use.
# Acetate Buffer (pH 5.5) Preparation—The acetate buffer (pH 5.5) used for the trifluoroacetate salts (Type A and B) and the HCl Type I salt was prepared by placing 0.60 g sodium acetate (NaC2H3O2.3H2O) in a 100-mL volumetric flask, adding 3 mL of 2 M acetic acid solution, and then adding purified water to volume.
# An alternative media (“phosphate (pH 6.0) alternative media”) was used to study the trifluoroacetate salts (Type A and B) and the HCl Type I salt. More specifically, the media was prepared by dissolving 2.72 g of 0.2 M monobasic potassium phosphate (KH2PO4) in purified water, and diluting with purified water t 100 mL. 0.8 g of 0.2 M sodium hydroxide in purified water was diluted with purified water to 100 mL. Then 50 mL of the 0.2 M monobasic potassium phosphate solution was placed in a 200-mL volumetric flask, 5.6 mL of 0.2 M sodium hydroxide solution was added, and then purified water was added to volume.
# The trifluoroacetate salts (Type A and B) and the HCl Type I salt were tested using the following alternative procedure. First, 15 mg, 36 mg or 90 mg solid was weighted into a 4-mL plastic tube, and 3 mL of relevant media was added before leaving the suspension on a rolling incubator (25 r/min). For SCF, 90 mg of solid was used. For FaSSIF, acetate buffer (pH 5.5), and phosphate buffer (pH 6.0), 15 mg solid was used. For FeSSIF, 36 mg of solid was used. 1.0 mL aliquot of the suspension was sampled for centrifugation with the supernatant submitted for HPLC and pH measurement and solid for XRPD characterization at 1 hr, 4 hr and/or 24 hrs.
# The solubility of trifluoroacetate Type A, Type B and HCl Type I was measured in SGF at ambient temperature. Approximately 90 mg of solid sample was weighted into a 4-mL centrifuge tube, and 3 mL of SGF buffer was added before leaving the suspension on a rolling incubator (25 r/min). 1.0 mL aliquot of the suspension was sampled for centrifugation (10000 rpm, 3 mins) the supernatant was analyzed by HPLC and pH measurement and solid by XRPD characterization at 1 hr, 4 hr and 24 hrs, respectively.
# The solubility of trifluoroacetate Type A, Type B and hydrochloride Type I was measured in the FaSSIF alternative media at ambient temperature. Approximately 15 mg of solid sample was weighted into a 4-mL plastic tube, and 3 mL of the media was added before leaving the suspension on a rolling incubator (25 r/min).
# [5] = Physical and chemical stability of trifluoroacetate Types A and B and HCl Type I for 1, 2, 4 and 8 weeks; type: physicochemical
# Procedure: High Power Liquid Chromatography (HPLC) Method—An Agilent 1260 HPLC with DAD detector was utilized to test solubility or to test purity and stability. […] System suitability was tested by injecting standard solutions five times in each sample sequence, and the relative standard deviation of the peak areas was less than 2%.
# Physical and chemical stability evaluation of trifluoroacetate Type A, trifluoroacetate Type B, and HCl Type I was performed at 25° C./60% RH, 40° C./75% RH and 60° C. for 1, 2, 4 and 8 weeks. In the experiments, approximately 20 mg of solid was placed into a 1.5-mL glass vial. The vials were stored under 25° C./60% RH (uncapped), 40° C./75% RH (uncapped) and 60° C. (capped) conditions for 8 weeks. XRPD analysis was then employed to check the crystalline form of the solid, and HPLC was utilized to determine the purity profile at 1, 2, 4 and 8 weeks. […] The solid form change of trifluoroacetate Type A at 2 and 4 weeks was postulated to the air-exposure when the sample was taken out for XRPD characterization.
# [6] = 25° C./60% RH (uncapped), 1 week
# [7] = 25° C./60% RH (uncapped), 2 weeks
# [8] = 25° C./60% RH (uncapped), 4 weeks
# [9] = 25° C./60% RH (uncapped), 8 weeks
# [10] = 40° C./75% RH (uncapped), 1 week
# [11] = 40° C./75% RH (uncapped), 2 weeks
# [12] = 40° C./75% RH (uncapped), 4 weeks
# [13] = 40° C./75% RH (uncapped), 8 weeks
structure (smiles),measurement,setting,value
CC(C)[C@@H](C)[C@@]1(C)CC[C@]2(C)[C@H]3CC[C@@H]4[C@@]5(COC[C@]4(C)[C@@H](OC[C@](C)(N)C(C)(C)C)[C@H](n4ncnc4-c4ccncc4)C5)C3=CC[C@@]2(C)[C@@H]1C(=O)O.O=C(O)CC(O)(CC(=O)O)C(=O)O [SCY-078 citrate Type M],physical and chemical stability,[1]; closed dish 60° C.,impurity of SCY-078 citrate Type M increased
same,physical and chemical stability,"[1]; open dish 25° C., 60% RH",physically and chemically stable
same,physical and chemical stability,"[1]; open dish 40° C., 75% RH",One diffraction peak change and partial crystallinity loss
same,water uptake (DVS),"[2]; 25° C., 80% RH",11.0%
same,solid form by XRPD after DVS,[2],converts to partially amorphous
CC(C)[C@@H](C)[C@@]1(C)CC[C@]2(C)[C@H]3CC[C@@H]4[C@@]5(COC[C@]4(C)[C@@H](OC[C@](C)(N)C(C)(C)C)[C@H](n4ncnc4-c4ccncc4)C5)C3=CC[C@@]2(C)[C@@H]1C(=O)O.CS(=O)(=O)O [SCY-078 mesylate Type A],pH 1 hr,[3],3.4
same,pH 24 hrs,[3],3.6
same,water uptake (DVS),"[2]; 25° C., 80% RH",11.5%
same,solid form by XRPD after DVS,[2],no form change
CC(C)[C@@H](C)[C@@]1(C)CC[C@]2(C)[C@H]3CC[C@@H]4[C@@]5(COC[C@]4(C)[C@@H](OC[C@](C)(N)C(C)(C)C)[C@H](n4ncnc4-c4ccncc4)C5)C3=CC[C@@]2(C)[C@@H]1C(=O)O.O=P(O)(O)O [SCY-078 phosphate Type A],pH 1 hr,[3],3.4
same,pH 24 hrs,[3],3.6
same,water uptake (DVS),"[2]; 25° C., 80% RH",12.5%
same,solid form by XRPD after DVS,[2],no form change
CC(C)[C@@H](C)[C@@]1(C)CC[C@]2(C)[C@H]3CC[C@@H]4[C@@]5(COC[C@]4(C)[C@@H](OC[C@](C)(N)C(C)(C)C)[C@H](n4ncnc4-c4ccncc4)C5)C3=CC[C@@]2(C)[C@@H]1C(=O)O.Cl [SCY-078 HCl Type I],Form change,"[4]; FaSSIF alternative media, 1 hr",No
same,Form change,"[4]; FaSSIF alternative media, 4 hrs",No
same,Form change,"[4]; FaSSIF alternative media, 24 hrs",No
same,form change of residual solid in FaSSIF alternative media,"[4]; FaSSIF alternative media, ambient temperature",no form change was observed
same,Form change,"[4]; FeSSIF alternative media, 1 hr",No
same,Form change,"[4]; FeSSIF alternative media, 4 hrs",No
same,Form change,"[4]; FeSSIF alternative media, 24 hrs",No
same,form change of residual solid in FeSSIF alternative media,"[4]; FeSSIF alternative media, ambient temperature",no form change was observed
same,Form change,"[4]; SGF, 1 hr",No
same,Form change,"[4]; SGF, 4 hrs",No
same,Form change,"[4]; SGF, 24 hrs",No
same,form change of residual solid in SGF,"[4]; SGF, ambient temperature",no form change was observed
same,form change of residual solid in acetate buffer,"[4]; acetate buffer pH 5.5, ambient temperature",converted to Type II
same,solubility in acetate buffer (comparison),"[4]; acetate buffer pH 5.5, ambient temperature, 4 hr and 24 hrs",lower solubility
same,Form change,"[4]; phosphate (pH 6.0) alternative media, 4 hrs",No
same,Form change,"[4]; phosphate (pH 6.0) alternative media, 24 hrs",No
same,form change of residual solid in phosphate (pH 6.0) alternative media,"[4]; phosphate (pH 6.0) alternative media, ambient temperature",No form change was observed
same,solubility in phosphate (pH 6.0) alternative media (comparison),"[4]; phosphate (pH 6.0) alternative media, ambient temperature, 4 hr and 24 hrs",higher solubility
same,HPLC purity,[5]; [6],99.9%
same,Solid form,[5]; [6],Type I
same,HPLC purity,[5]; [7],99.9%
same,Solid form,[5]; [7],Type I
same,HPLC purity,[5]; [8],99.9%
same,Solid form,[5]; [8],Type I
same,HPLC purity,[5]; [9],99.9%
same,Solid form,[5]; [9],Type I
same,physical and chemical stability,"[5]; 25° C./60% RH, 40° C./75% RH and 60° C., 8 weeks",physically and chemically stable
same,HPLC purity,[5]; [10],99.9%
same,Solid form,[5]; [10],Type I
same,HPLC purity,[5]; [11],99.9%
same,Solid form,[5]; [11],Type I
same,HPLC purity,[5]; [12],99.9%
same,Solid form,[5]; [12],Type I
same,HPLC purity,[5]; [13],99.9%
same,Solid form,[5]; [13],Type I
same,HPLC purity,"[5]; 60° C. (capped), 1 week",99.9%
same,Solid form,"[5]; 60° C. (capped), 1 week",Type I
same,HPLC purity,"[5]; 60° C. (capped), 2 weeks",99.9%
same,Solid form,"[5]; 60° C. (capped), 2 weeks",Type I
same,HPLC purity,"[5]; 60° C. (capped), 4 weeks",99.9%
same,Solid form,"[5]; 60° C. (capped), 4 weeks",Type I
same,HPLC purity,"[5]; 60° C. (capped), 8 weeks",99.9%
same,Solid form,"[5]; 60° C. (capped), 8 weeks",Type I
same,Initial HPLC purity,[5]; Initial,99.9%
same,water uptake (DVS),[2]; 25° C./80% RH,6.1 wt %
same,solid form by XRPD after DVS,[2],No form change
CC(C)[C@@H](C)[C@@]1(C)CC[C@]2(C)[C@H]3CC[C@@H]4[C@@]5(COC[C@]4(C)[C@@H](OC[C@](C)(N)C(C)(C)C)[C@H](n4ncnc4-c4ccncc4)C5)C3=CC[C@@]2(C)[C@@H]1C(=O)O.O=C(O)CC(O)(CC(=O)O)C(=O)O [SCY-078 citrate Type S],physical and chemical stability,[1]; closed dish 60° C.,physically and chemically stable
same,physical and chemical stability,"[1]; open dish 25° C., 60% RH",Diffraction peak shifts were observed
same,physical and chemical stability,"[1]; open dish 40° C., 75% RH",Diffraction peak shifts were observed
same,water uptake (DVS),"[2]; 25° C., 80% RH",8.2%
same,solid form by XRPD after DVS,[2],peak shifts
CC(C)[C@@H](C)[C@@]1(C)CC[C@]2(C)[C@H]3CC[C@@H]4[C@@]5(COC[C@]4(C)[C@@H](OC[C@](C)(N)C(C)(C)C)[C@H](n4ncnc4-c4ccncc4)C5)C3=CC[C@@]2(C)[C@@H]1C(=O)O.O=C(O)CNC(=O)c1ccccc1.O=C(O)CNC(=O)c1ccccc1 [SCY-078 hippurate Type B],pH 1 hr,[3],4.6
same,pH 24 hrs,[3],4.2
same,water uptake (DVS),"[2]; 25° C., 80% RH",~3.5%
same,solid form by XRPD after DVS,[2],converted to SCY-078 hippurate Type A
